The values that follow come from publication PMC5045939, “Comparison of [^11C]TZ1964B and [^18F]MNI659 for PET imaging brain PDE10A in nonhuman primates” (Pharmacology Research & Perspectives, 2016).

Data set [1] deals with PDE10A. As to conditions: cited from earlier work.
Data set [2] is described as follows: Log P measurement, 1-octanol/PBS pH 7.4. The class given is physicochemical. To be noted: 1-octanol / 0.1 mol/L PBS pH 7.4, Log D7.4 taken as Log P. The method, then: Log P was measured according to the previous report (Li et al. 2013b), by adding different volumes of [^11C]TZ1964B or [^18F]MNI659 into a mixture of 1‐octanol (3 mL) and 0.1 mol/L phosphate‐buffered saline (PBS, pH 7.4, 3 mL). The mixture was vortexed and then centrifuged. Then, 2 mL organic layer was mixed with 1 mL 1‐octanol and 3 mL PBS buffer. The resulting mixture was vortexed and centrifuged again. Then 1 mL of the organic layer and 1 mL of the aqueous layer were separated and loaded in a gamma counter. The results were corrected for background radiation and physical decay. The partition coefficient Log D7.4, which equals Log P, was calculated as the decimal logarithm the ratio of cpm/mL of 1‐octanol to that of PBS.

Data set [3] deals with PDE10A. To be noted: cited from earlier work. This is another data set of the same source.
Data set [4] relates to PDE10A. The data set can be described thus: microPET imaging of NHP brain, reference-based kinetic analysis and AUC ratio. Format: in vivo, cynomolgus monkey. As to conditions: for AUC ratio: 60-120 min; for AUC ratio / BPND-Logan / BPND-SRTM / AUC ratio (Stri/Cere) / R1 / k2: mean ± SD; for AUC ratio (Stri/Cere): NHP striatum to cerebellum, 60-120 min data; for time of peak (max SUV) striatal uptake: post injection, averaged SUV curves. As to the method:
PET imaging studies were carried out on two adult male cynomolgus monkeys, weighing on 7–8 kg. Subject A underwent three sets of double scans, and Subject B underwent one set of double scans. Animals were prepared for microPET studies as previously reported (Liu et al. 2015). About 1.5–2.5% isoflurane inhalation anesthesia was maintained throughout the microPET imaging sessions. A 20‐gage plastic catheter was inserted into a limb vein to permit hydration and injection of the radiotracer. Arterial blood was collected through another 20‐gage plastic catheter which was placed into a femoral artery.
The imaging studies of [^11C]TZ1964B and [^18F]MNI659 in the NHP brain through double scans were done using a MicroPET Focus 220 scanner (Concorde/CTI/Siemens Microsystems, Knoxville, TN). For all the double scans, [^11C]TZ1964B studies were performed in the morning and [^18F]MNI659 in the afternoon, with an interval of ~3 h between the injection of each tracer. Prior to each PET acquisition, a 45‐min transmission scan for attenuation correction was performed following a 10 min transmission that was used to check the position of the brain within the scanner. Subsequently, 296–370 MBq of [^11C]TZ1964B or [^18F]MNI659 was intravenously injected, and a 120 min dynamic (3 × 1‐min frames, 4 × 2‐min frames, 3 × 3‐min frames, and 20 × 5‐min frames) PET scan was acquired.
The PET images were processed according to the previous report (Liu et al. 2015). Briefly, emission scans were corrected and reconstructed using filtered back projection as described previously (Miller et al. 1989). The final reconstructed resolution was 2.00 mm full width at half maximum (FWHM) for all three dimensions (axial) at center of the field of view. The actual field of view is 25.8 cm diameter and a 7.6 cm axial length. The reconstructed PET images was co‐registered with magnetization‐prepared rapid gradient echo (MP‐RAGE) MR images using Automated Image Registration (AIR) (Woods et al. 1993), and superimposed using Analyze 10.0 (AnalyzeDirect, Overland Park, KS) for quality control. For quantitative analyses, three‐dimensional regions of interest (ROIs) for cerebellum (Subject A: 583 voxels; Subject B: 750 voxels, the voxel size is 1.858 mm × 1.858 mm × 0.796 mm = 2.75 μL), striatum (A: 695 voxels; B: 1158 voxels), frontal cortex (A: 263 voxels; B: 225 voxels), midbrain (A: 64 voxels; B: 118 voxels), and hippocampus (A: 68 voxels; B: 64 voxels) were identified on MRI images and then transformed into PET images using the co‐registration transformation matrix. The ROIs for each animal were kept fixed for all subsequent studies once identified on a baseline scan. Time–activity curves (TACs) for each ROI were then obtained from the dynamic PET images. Standardized uptake value (SUV) of each tracer was calculated and standardized to the body weight and the injected dose of radioactivity.
Regional tracer uptake was quantified using two different reference‐based kinetic methods: Logan Reference (LoganREF) model (Logan et al. 1990, 1996; Innis et al. 2007; Liu et al. 2015) and simplified reference tissue model (SRTM) (Lammertsma and Hume 1996; Gunn et al. 1997; Innis et al. 2007; Liu et al. 2015). According to the LoganREF model, the distribution volume ratio (DVR) of each ROI was calculated using a MATLAB (Mathworks Inc., Natick, MA). The nondisplaceable binding potential (BPND) was then estimated: BPND = DVR‐1. BPND and R1, k 2 values were also obtained from the SRTM model (Lammertsma and Hume 1996; Watabe et al. 1996).
We also calculated the area under the time–activity curve (AUC) for the striatal to cerebellar ratio (AUC‐striatum/AUC‐cerebellum); this is a simple model and input function‐independent method to quantify an index of tracer accumulation in the brain (Muller Herde et al. 2015). […] Ideally, the AUC ratio equals the DVR determined by LoganREF model (Muller Herde et al. 2015). […]

A short description of data set [5]: radiometabolite analysis of NHP arterial plasma by HPLC. Format: in vivo, cynomolgus monkey. To be noted: 60 min post injection, n = 1. The method, then: The radiometabolite analysis was performed according to previous reports (Tu et al. 2011, 2015). Arterial blood samples (1.2–1.5 mL) were collected in a heparinized syringe at 2, 5, 15, 30, and 60 min (for [^11C]TZ1964B) or 5, 15 30, 60, 90, and 120 min (for [^18F]MNI659) postinjection of each radiotracer. Plasma (400 μL) was collected by centrifugation of the whole blood and mixed with ice‐cold methanol (0.92 mL) to deproteinate and extract the parent compound and radiolabeled metabolites. After centrifugation, the supernatant was mixed with water (1/1, v/v), and loaded onto a HPLC system with an Agilent SB C‐18 analytical HPLC column (250 mm × 4.6 mm, 5 μ) and a UV detector with 254 nm wavelength. The mobile phase was acetonitrile/0.1 mol/L ammonium formate buffer pH 4.5, (52/48, v/v) with a flow rate of 1.0 mL/min. The eluted fractions were collected for 16 min at 1 min intervals; the radioactivity of in each fraction was counted in a well counter, and results were corrected for background radiation and physical decay.

Setting [6] is: Figure 1, no reference given, read-out: Kd.
Setting [7] is: NHP frontal cortex to cerebellum.
Where [8] appears, read: NHP midbrain to cerebellum, n = 4 scans in 2 NHPs.
Where [9] appears, read: NHP striatum, LoganREF model, cerebellum reference, n = 4 scans in 2 NHPs.
The mark [10] stands for this setting: NHP striatum, SRTM, cerebellum reference, n = 4 scans in 2 NHPs.

Several values for one entry are separate records, joined by “and”; a condition that tells them apart may be missing. Equal values may be shown once. Read-outs that look alike come from different tables or passages of the source.

Regarding `Cc1ccc2c(=O)n(-c3ccc(OCCF)cc3)c(CCN3C(=O)c4cccc(OC(C)C)c4C3=O)nc2c1` [MNI659], in data set [1] (in vitro, given as Kd in Figure 1, ref Barret et al. 2014, read-out: binding potency for PDE10A), the Kd was 0.097 nM. This compound showed a logP in data set [2] of 1.98.

Regarding `COc1cc2ccccc2nc1COc1ccc(-c2nn(C)cc2-c2ccncc2)cc1` [TZ1964B], the IC50 in data set [3] (in vitro binding potency, ref Li et al. 2013a, read-out: IC50 toward PDE10A) is 0.4 ± 0.02 nM. Also, in data set [2], the logP came to 1.98.

With `Cn1cc(-c2ccncc2)c(-c2ccc(OCc3nc4ccccc4cc3O[11CH3])cc2)n1` [[^11C]TZ1964B, 3‐[^11C]methoxy‐2‐((4‐(1‐methyl‐4‐(pyridin‐4‐yl)‐1H‐pyrazol‐3‐yl)phenoxy)methyl)‐quinoline], the Kd in data set [1] (setting [6]) was 1.25 ± 0.2 nM. The AUC ratio was found to be 1.38 ± 0.13 in data set [4] (setting [7]), 1.35 ± 0.41 in data set [4] (NHP hippocampus to cerebellum) and 1.51 ± 0.47 in data set [4] (setting [8]). Further, the BPND-Logan was 0.15 ± 0.05 in data set [4] (NHP frontal cortex); 0.11 ± 0.25 in data set [4] (NHP hippocampus); 0.26 ± 0.20 in data set [4] (NHP midbrain); 3.72 and 3.72 ± 0.62 in data set [4] (setting [9]). Also, the BPND-SRTM in data set [4] (NHP frontal cortex) is 0.43 ± 0.28; in data set [4] (NHP hippocampus), 0.32 ± 0.50; in data set [4] (NHP midbrain), 0.57 ± 0.30; in data set [4] (setting [10]), 4.39 and 4.39 ± 0.39. In addition, the “AUC ratio (Stri/Cere)” value in data set [4] (n = 4 scans in 2 NHPs) is 5.87 and 5.87 ± 0.45. In addition, in data set [4] (NHP striatum, SRTM), the R1 is recorded as 1.16 ± 0.17. In data set [4] (NHP striatum, SRTM), the k2 turned out to be 0.13 ± 0.017 min⁻¹. Besides, in data set [4] (NHP striatum), the “time of peak (max SUV) striatal uptake” value was 40 to 60 min. Also, the Ki in data set [3] (Figure 1, no reference given) is 0.4 ± 0.02 nM. The logP in data set [2] was 1.98 ± 0.09. Further, the “percentage of parent compound in plasma” value in data set [5] is ~ 70%.

As for `Cc1ccc2c(=O)n(-c3ccc(OCC[18F])cc3)c(CCN3C(=O)c4cccc(OC(C)C)c4C3=O)nc2c1` [[^18F]MNI659, 2‐(2‐(3‐(4‐(2‐[^18F]fluoroethoxy)phenyl)‐7‐methyl‐4‐oxo‐3,4‐dihydroquinazolin‐2‐yl)ethyl)‐4‐isopropoxyisoindoline‐1,3‐dione], the Kd in data set [1] (setting [6]) is 0.097 nM. For the same compound, the AUC ratio in data set [4] (setting [7]) is on record as 1.37 ± 0.12; in data set [4] (NHP hippocampus to cerebellum) it was 1.08 ± 0.23; in data set [4] (setting [8]), 2.59 ± 0.42. In addition, the BPND-Logan in data set [4] (NHP frontal cortex) is 0.29 ± 0.10; in data set [4] (NHP hippocampus) it was 0.11 ± 0.18; in data set [4] (NHP midbrain) it was 1.02 ± 0.14; in data set [4] (setting [9]), 5.08 and 5.08 ± 1.62. Moreover, the BPND-SRTM is 0.29 ± 0.09 in data set [4] (NHP frontal cortex); 0.16 ± 0.20 in data set [4] (NHP hippocampus); 1.11 ± 0.16 in data set [4] (NHP midbrain); 5.33 and 5.33 ± 1.36 in data set [4] (setting [10]). The “AUC ratio (Stri/Cere)” value in data set [4] (n = 4 scans in 2 NHPs) is 7.60 and 7.60 ± 2.68. For the same compound, the “striatal K2 value relative to [^11C]TZ1964B” value in data set [4] (NHP striatum, SRTM) was “twofold”. Moreover, the R1 in data set [4] (NHP striatum, SRTM) is listed as 1.20 ± 0.20. For the same compound, the k2 in data set [4] (NHP striatum, SRTM) came to 0.28 ± 0.13 min⁻¹. Further, in data set [4] (NHP striatum), the “time of peak (max SUV) striatal uptake” value is “about 10 min”. In data set [2], this compound showed a logP of 1.98 ± 0.06. In data set [5], the “percentage of parent compound in plasma” value was ~ 50%.
